The subject of this assay is BDF1 mice, P388 leukemia ip, median survival T/C. Kind of assay: NCI In Vivo Anticancer Drug Screen. Data for tumor model P388 Leukemia (intraperitoneal) in B6D2F1 (BDF1) mice. Conditions: endpoint: median survival time, higher = longer survival. The gist of the method: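 T/C = treated-group survival ÷ vehicle-control survival; tumour transplanted into mice before dosing.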

Where [1] appears, read: dose: 100.0 mg/kg/injection, schedule: Q01DX009 (ip), vehicle: saline.
Setting [2] is: dose: 100.0 mg/kg/injection, schedule: Q04DX003 (ip), vehicle: saline.
Setting [3] is: dose: 200.0 mg/kg/injection, schedule: Q01DX009 (ip), vehicle: saline.
[4] abbreviates: dose: 200.0 mg/kg/injection, schedule: Q04DX003 (ip), vehicle: saline.
Where [5] appears, read: dose: 400.0 mg/kg/injection, schedule: Q04DX003 (ip), vehicle: saline.
Where [6] appears, read: dose: 50.0 mg/kg/injection, schedule: Q01DX009 (ip), vehicle: Klucel (hydroxypropylcellulose) (HPC).
[7] abbreviates: dose: 100.0 mg/kg/injection, schedule: Q01DX009 (ip), vehicle: Klucel (hydroxypropylcellulose) (HPC).
Where [8] appears, read: dose: 200.0 mg/kg/injection, schedule: Q01DX009 (ip), vehicle: Klucel (hydroxypropylcellulose) (HPC).
Where [9] appears, read: dose: 50.0 mg/kg/injection, schedule: Q01DX009 (ip), vehicle: saline with Tween-80.
Setting [10] is: dose: 100.0 mg/kg/injection, schedule: Q01DX009 (ip), vehicle: saline with Tween-80.
Setting [11] is: dose: 12.5 mg/kg/injection, schedule: Q01DX009 (ip), vehicle: Klucel (hydroxypropylcellulose) (HPC).
[12] abbreviates: dose: 100.0 mg/kg/injection, schedule: Q04DX003 (ip), vehicle: saline with Tween-80.
The mark [13] stands for this setting: dose: 200.0 mg/kg/injection, schedule: Q04DX003 (ip), vehicle: saline with Tween-80.
Setting [14] is: dose: 400.0 mg/kg/injection, schedule: Q04DX003 (ip), vehicle: saline with Tween-80.
The mark [15] stands for this setting: dose: 200.0 mg/kg/injection, schedule: Q01DX009 (ip), vehicle: saline with Tween-80.
[16] abbreviates: dose: 100.0 mg/kg/injection, schedule: Q04DX003 (ip), vehicle: Klucel (hydroxypropylcellulose) (HPC).
Where [17] appears, read: dose: 400.0 mg/kg/injection, schedule: Q04DX003 (ip), vehicle: Klucel (hydroxypropylcellulose) (HPC).

Several values for one entry are separate records, joined by “and”; a condition that tells them apart may be missing. Identical values can stand only once. Inconclusive results and toxic doses are left out.

For the molecule `C[C@]12CC[C@@H]3c4ccc(OC5CCCCO5)cc4CC[C@H]3[C@@H]1CC[C@@H]2O` (stereo not given in full), the T/C runs as follows: under setting [1], 105 % of control; under setting [2], 100 % of control; under setting [3], 95 % of control; under setting [4], 100 % of control; under setting [5], 100 % of control.
With `O=C1c2ccccc2-c2ccc(Br)c3cccc1c23`, the T/C under setting [6] was 100 % of control, the T/C under setting [7] was 100 % of control and the T/C under setting [8] was 100 % of control.
Consider `CCCCC(=O)c1cc(OC)cc(OC)c1`, for which the T/C reads like this: under setting [8], 100 % of control; (dose: 400.0 mg/kg/injection, schedule: Q01DX009 (ip), vehicle: Klucel (hydroxypropylcellulose) (HPC)) 91 % of control.
As to `CCC/C=C/C=C/C1CC(O)C(O)C(=O)C1CO` (stereo not given), the T/C (dose: 12.5 mg/kg/injection, schedule: Q01DX009 (ip), vehicle: saline with Tween-80) is 99 % of control; the T/C (dose: 25.0 mg/kg/injection, schedule: Q01DX009 (ip), vehicle: saline with Tween-80) is 106 % of control; the T/C under setting [9] is 97 % of control; the T/C under setting [10] was 101 % of control.
For the molecule `CC(=O)O[C@]1(C(C)=O)CC[C@H]2[C@@H]3C[C@H](F)C4=CC(=O)CC[C@]4(C)[C@H]3CC[C@@]21C`, the T/C under setting [11] is 109 % of control; the T/C (dose: 25.0 mg/kg/injection, schedule: Q01DX009 (ip), vehicle: Klucel (hydroxypropylcellulose) (HPC)) is 100 % of control; the T/C under setting [6] is 100 % of control; the T/C under setting [7] was 87 % of control; the T/C (dose: 100.0 mg/kg/injection, schedule: Q04DX003 (ip), vehicle: alcohol) is 100 % of control; the T/C (dose: 200.0 mg/kg/injection, schedule: Q04DX003 (ip), vehicle: alcohol) was 105 % of control. For the same molecule, the T/C (dose: 400.0 mg/kg/injection, schedule: Q04DX003 (ip), vehicle: alcohol) was 110 % of control.
For the molecule `CSC1C(=O)Nc2ccc(Cl)cc21` (stereo not given), the T/C by setting is: under setting [12], 97 % of control and 108 % of control; under setting [13], 98 % of control and 99 % of control; under setting [14], 99 % of control and 110 % of control; (dose: 600.0 mg/kg/injection, schedule: Q04DX003 (ip), vehicle: saline with Tween-80) 92 % of control.
Consider `COC(=O)C1C2CCc3cc(OC)ccc3C2CC(=O)C1(C)C(=O)OC` (stereo not given), for which the T/C is, setting by setting: (dose: 100.0 mg/kg/injection, schedule: Q04DX003 (sc), vehicle: steriod suspending solution) 109 % of control; (dose: 200.0 mg/kg/injection, schedule: Q04DX003 (sc), vehicle: steriod suspending solution) 90 % of control; (dose: 400.0 mg/kg/injection, schedule: Q04DX003 (sc), vehicle: steriod suspending solution) 95 % of control.
As to `CNC(=O)O/N=C(\CN=[N+]=[N-])C(C)(C)C`, the T/C reads like this: (dose: 0.2 mg/kg/injection, schedule: Q01DX009 (ip), vehicle: saline) 92 % of control; (dose: 0.39 mg/kg/injection, schedule: Q01DX009 (ip), vehicle: saline) 88 % of control; (dose: 0.78 mg/kg/injection, schedule: Q01DX009 (ip), vehicle: saline) 122 % of control.
For the molecule `CCC(C)C(NC(=O)CCN)C(=O)O` (stereo not given), the T/C was 104 % of control (dose: 50.0 mg/kg/injection, schedule: Q01DX005 (ip), vehicle: saline); 103 % of control (dose: 100.0 mg/kg/injection, schedule: Q01DX005 (ip), vehicle: saline); 100 % of control (dose: 200.0 mg/kg/injection, schedule: Q01DX005 (ip), vehicle: saline).
Regarding `O=C(O)c1csc(-c2csc(CCNC(=O)C(F)(F)F)n2)n1`, the T/C is 94 % of control under setting [9], 93 % of control under setting [10] and 103 % of control under setting [15].
With `O=C(/C=C\c1ccc(O)c(O)c1)OC1C(O)CC(OC(=O)/C=C/c2ccc(O)c(O)c2)(C(=O)O)CC1O` (stereo not given), the T/C reads like this: (dose: 100.0 mg/kg/injection, schedule: Q01DX001 (ip), vehicle: saline) 95 % of control; under setting [16], 100 % of control; (dose: 200.0 mg/kg/injection, schedule: Q01DX001 (ip), vehicle: saline) 95 % of control; (dose: 200.0 mg/kg/injection, schedule: Q04DX003 (ip), vehicle: Klucel (hydroxypropylcellulose) (HPC)) 100 % of control; (dose: 400.0 mg/kg/injection, schedule: Q01DX001 (ip), vehicle: saline) 95 % of control; under setting [17], 95 % of control.
As to `O=C(O)CCCCCCCC(=O)c1ccccc1`, the T/C (dose: 50.0 mg/kg/injection, schedule: Q04DX003 (ip), vehicle: saline sonified) was 100 % of control; the T/C (dose: 100.0 mg/kg/injection, schedule: Q04DX003 (ip), vehicle: saline sonified) was 104 % of control; the T/C (dose: 200.0 mg/kg/injection, schedule: Q04DX003 (ip), vehicle: saline sonified) was 95 % of control.
For `CCOC(=O)/C=C(\C)OCC`, the T/C by setting is: (dose: 25.0 mg/kg/injection, schedule: Q01DX009 (ip), vehicle: saline) 104 % of control; (dose: 25.0 mg/kg/injection, schedule: Q04DX003 (ip), vehicle: saline) 92 % of control and 111 % of control; (dose: 50.0 mg/kg/injection, schedule: Q01DX009 (ip), vehicle: saline) 101 % of control; (dose: 50.0 mg/kg/injection, schedule: Q04DX003 (ip), vehicle: saline) 94 % of control and 114 % of control; under setting [1], 90 % of control; under setting [2], 100 % of control. The T/C is 109 % of control under setting [3]; 98 % of control and 106 % of control under setting [4]; 95 % of control (dose: 400.0 mg/kg/injection, schedule: Q01DX009 (ip), vehicle: saline); 97 % of control and 104 % of control under setting [5].
On to `CCCn1c(C)nc2cc(C(F)(F)F)cc(N)c21`, for which the T/C was 103 % of control under setting [12], 92 % of control under setting [13] and 97 % of control under setting [14].
For the molecule `Cc1cc(OCc2nc(N)nc(N)c2-c2ccc(Cl)c(Cl)c2)ccc1NS(=O)(=O)c1cccc(S(=O)(=O)F)c1`, the T/C reads like this: (dose: 45.0 mg/kg/injection, schedule: Q04DX003 (ip), vehicle: Klucel (hydroxypropylcellulose) (HPC)) 109 % of control; (dose: 65.0 mg/kg/injection, schedule: Q04DX003 (ip), vehicle: Klucel (hydroxypropylcellulose) (HPC)) 118 % of control; under setting [16], 122 % of control; (dose: 264.0 mg/kg/injection, schedule: Q04DX003 (ip), vehicle: Klucel (hydroxypropylcellulose) (HPC)) 175 % of control; under setting [17], 170 % of control.
Regarding `CS(=O)(=O)OCCN(CCOS(C)(=O)=O)c1cccc(Cl)c1`, the T/C by setting is: (dose: 1.0 mg/kg/injection, schedule: Q04DX003 (ip), vehicle: saline with Tween-80) 100 % of control; (dose: 2.0 mg/kg/injection, schedule: Q04DX003 (ip), vehicle: saline with Tween-80) 100 % of control; (dose: 4.0 mg/kg/injection, schedule: Q04DX003 (ip), vehicle: saline with Tween-80) 172 % of control; (dose: 6.25 mg/kg/injection, schedule: Q01DX009 (ip), vehicle: other) 163 % of control; (dose: 6.25 mg/kg/injection, schedule: Q04DX003 (ip), vehicle: saline) 110 % of control; (dose: 8.0 mg/kg/injection, schedule: Q04DX003 (ip), vehicle: saline with Tween-80) 177 % of control. The T/C is 168 % of control under setting [11]; 200 % of control (dose: 12.5 mg/kg/injection, schedule: Q01DX009 (ip), vehicle: other); 186 % of control (dose: 18.7 mg/kg/injection, schedule: Q01DX009 (ip), vehicle: Klucel (hydroxypropylcellulose) (HPC)); 240 % of control (dose: 22.0 mg/kg/injection, schedule: Q04DX003 (ip), vehicle: other); 95 % of control (dose: 25.0 mg/kg/injection, schedule: Q01DX009 (ip), vehicle: other); 90 % of control (dose: 50.0 mg/kg/injection, schedule: Q04DX003 (ip), vehicle: other). The T/C (dose: 75.0 mg/kg/injection, schedule: Q04DX003 (ip), vehicle: other) is 90 % of control.
Regarding `CS(=O)(=O)C1CCCCC1SC#N` (stereo not given), the T/C is 98 % of control under setting [9], 115 % of control under setting [10] and 115 % of control under setting [15].

The values are drawn from PubChem BioAssay AID328 (DTP/NCI, 2004).
